We go through 18 compounds from ChEMBL document CHEMBL3352145, “Structure-based design of novel human Pin1 inhibitors (III): optimizing affinity beyond the phosphate recognition pocket” (Bioorg Med Chem Lett, 2014).

≈ marks a conversion by molar mass, not a printed value. Calls of active or inactive are those of the source. No cut-off for these calls is given here.

Series [1] concerns the target Peptidyl-prolyl cis-trans isomerase NIMA-interacting 1 (Homo sapiens, UniProt Q13526). The experiment in a line: Inhibition of Pin1 (unknown origin).
The test system of series [2] is HT-29. The experiment in a line: Antiproliferative activity against human HT-29 cells. The series is classed as functional, cell-based.
Series [3] concerns HT-29. Nature of the series: Cell cycle arrest in human HT-29 cells assessed as cells accumulation at G2/M phase at 50 uM by FACS analysis (reference value: 6.2%). The series is classed as functional.
The subject of series [4] is HT-29. Nature of the series: Cell cycle arrest in human HT-29 cells assessed as cells accumulation at S phase at 50 uM by FACS analysis (reference value: 37%). The series is classed as functional.
Series [5] relates to HT-29. The experiment in a line: Cell cycle arrest in human HT-29 cells assessed as cells accumulation at sub G1 phase at 50 uM by FACS analysis (Rvb =<1%). The class given is functional.
For series [6], the system named is HT-29. The experiment in a line: Cell cycle arrest in human HT-29 cells assessed as cells accumulation at G0/G1 phase at 50 uM by FACS analysis (reference value: 56.9%). The series is classed as functional.
Series [7] has as its system HT-29. Nature of the series: Induction of histological changes in human HT-29 cells assessed as fragmented phenotype at 50 uM by DAPI staining. The series is classed as functional, cell-based.
Series [8] in a line: Dissociation constant, pKa of the compound. The class given is physicochemical.
Series [9] can be described thus: Lipophilicity, log P of the compound. Particulars: octanol/water. The series is classed as physicochemical.
Series [10] is described as follows: Aqueous solubility of the compound. The series is classed as physicochemical. The conditions noted are these: buffer.

Chain of Peptidyl-prolyl cis-trans isomerase NIMA-interacting 1 (Q13526 whole entry): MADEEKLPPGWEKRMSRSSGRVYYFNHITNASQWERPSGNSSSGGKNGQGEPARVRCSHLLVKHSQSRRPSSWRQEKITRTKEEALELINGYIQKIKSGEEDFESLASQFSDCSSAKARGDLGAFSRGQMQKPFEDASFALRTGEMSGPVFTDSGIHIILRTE

In turn, `O=C(N[C@H](Cc1nc2ccccc2s1)C(=O)O)c1ccc2ccccc2c1` gave an inhibition constant Ki in [1] of 46000 nM. This counts as double-digit micromolar.

`O=C(O)C1(Cc2cc3ccc(F)cc3[nH]2)CSC(c2ccc3ccccc3c2)=N1` (racemic): it took 27000 nM to reach half-maximal inhibition in the series on HT-29 [2] (IC50). For the same compound, the Activity is listed as 71.1% with HT-29 [3], 18.7% in the series with HT-29 [4], 5% with HT-29 [5] and 10.2% in the series on HT-29 [6]. Also, the affinity in series [1], expressed as Ki, was 1360 nM. Moreover, the result with HT-29 [7] was Active.

The compound `O=C(O)C1(Cc2cc3ccc(F)cc3[nH]2)CSC(/C=C/c2c(Cl)cccc2Cl)=N1` (racemic) registered an IC50 in the series with HT-29 [2] of 1900 nM. The Ki in [1] was determined as 580 nM.

In series [8], `O=C(Cc1cccc2ccccc12)N[C@H](Cc1cc2ccc(F)cc2[nH]1)C(=O)O` returned a pKa of 3.91. The compound further registered a logP in [9] of 2.49. Also, affinity in series [1] was put at a Ki of 400 nM. In series [10], the concentration in solution (solubility) was 106 µg/mL (≈ 272 µM).

As for `O=C(N[C@H](Cc1nc2cc(Cl)ccc2[nH]1)C(=O)O)c1cc2ccccc2s1`, in series [1], the Ki came out at 189 nM.

The compound `Cc1ccc2[nH]c(C[C@@H](NC(=O)c3cc4ccccc4s3)C(=O)O)nc2c1` registered a Ki in series [1] of 424 nM. Against the preceding compound, the Ki is about 2.2-fold higher.

`O=C(O)C1(Cc2cc3ccc(F)cc3[nH]2)CSC(CC2c3ccccc3-c3ccccc32)=N1` (racemic) yielded an IC50 in the series with HT-29 [2] of 4200 nM. This compound had a Ki in series [1] of 320 nM.

For the compound `O=C(N[C@H](Cc1nc2cc(F)ccc2[nH]1)C(=O)O)c1cc2ccccc2s1`, the affinity in [1], expressed as Ki, was 76 nM.

Take `O=C(NC(Cc1cc2ccccc2o1)C(=O)O)c1ccc2ccccc2c1` (centres undefined): the affinity in [1] corresponds to a Ki of 10000 nM.

In the series with HT-29 [2], `O=C(O)C1(Cc2cc3ccc(F)cc3[nH]2)CSC(CCc2c(Cl)cccc2Cl)=N1` (racemic) gave an IC50 of 4600 nM. This compound also had an inhibitory constant (Ki) in series [1] of 196 nM.

Consider `O=C(NC(Cc1nc2ccccc2[nH]1)C(=O)O)c1ccc2ccccc2c1` (racemic), for which the Ki in series [1] was 1000 nM.

As to `O=C(CC1c2ccccc2-c2ccccc21)N[C@H](Cc1cc2ccc(F)cc2[nH]1)C(=O)O`, the pKa in [8] amounted to 3.9. In series [9], this compound gave a logP of 3.6. In series [1], the inhibition constant (Ki) was 12 nM. The compound also displayed a solubility in series [10] of more than 100 µg/mL.

The compound `O=C(N[C@H](Cc1nc2cc(F)ccc2[nH]1)C(=O)O)c1ccc2ccccc2c1` registered an inhibition constant (Ki) in series [1] of 80 nM.

With `O=C(CCc1c(Cl)cccc1Cl)N[C@H](Cc1cc2ccc(F)cc2[nH]1)C(=O)O`, in [8], the pKa came out at 3.9. This compound also returned a lipophilicity (logP) in series [9] of 3.5. In series [1], this compound yielded a Ki of 75 nM. Further, in series [10], the solubility was more than 100 µg/mL.

Consider `O=C(N[C@H](Cc1nc2cc(Cl)ccc2[nH]1)C(=O)O)c1ccc2ccccc2c1`, for which the Ki in series [1] was found to be 173 nM. That is a sub-micromolar value.

The compound `Cc1ccc2[nH]c(C[C@@H](NC(=O)c3ccc4ccccc4c3)C(=O)O)nc2c1` returned a Ki in [1] of 780 nM. This Ki is about 4.5-fold higher than that of the compound before.

As to `O=C(N[C@H](Cc1cc2ccc(F)cc2[nH]1)C(=O)O)c1ccc2ccccc2c1`, the pKa in series [8] was 3.92. In addition, in series [9], the logP stood at 2.59. In series [1], the Ki is 138 nM. In series [10], this compound showed a solubility of more than 120 µg/mL.

Regarding `O=C(NC(Cc1cc2ccccc2[nH]1)C(=O)O)c1ccc2ccccc2c1` (centres undefined), the Ki in series [1] is 1900 nM.
